Test results taken from patent US20260232706A1, “1H-PYRAZOLE ANALOGUES AND METHODS AND USES THEREOF” (University of Manitoba, priority 2022, published 2026).

Tests used:
[1] = tested on: WG37R mice; test: 14-day acute toxicity assessment in WG37R mice; type: in vivo; conditions: for H&E histology compared with control mice / signs of overt degeneration, inflammation and necrosis in examined tissues: single IP 10 mg/kg
Protocol: The WG37R mice were randomly assigned to 2 groups: For the first set of the experiment, a total of 6 animals per group (3 male and 3 female) were used in the study. Group 1: Sham treatment 1 (1:20 DMSO/PBS) and Group 2: NS-1-2 (10 mg/kg body weight). According to requirement of acute toxicity study, 6-10 animals should be used to evaluate the effect of a substance. However, as the new analogues are structurally similar to Edaravone, having a single-dose safety profile of 450 mg/kg, the mortality of the Edaravone analogues at a dose of 10 mg/kg body weight/day was not expected. Considering the above facts, for the present acute study, the minimum number of animals was 6 per group. Morphological alterations, histological changes, and mean body weight assessments for whole set of animals, for both the WG37R control groups (N=6; 1:20, DMSO:PBS) and WG37R treated groups (N=6; NS-1-2; 10 mg/kg bodyweight) were assessed during the 14-day acute toxicity assessment, by giving a single IP injection to the mouse at 2 months of age (see further detail in (iia) below.
For intraperitoneal administration, about 1:20 of DMSO/PBS, at a pH of about 7.4 was used for the suspension of NS-1-2 test substance. Edaravone was dissolved in about 1 mL of about 1 mol/L NaOH and adjusted to about pH 7.4 by adding about 1 mol/L HCl, and then diluted in saline. A volume of about 400 μl from final reconstituted solution was aliquoted and stored in about −80° C., until further use. For acute toxicity experiments, a single dose of about 10 mg/kg bodyweight of NS-1-2 was intraperitoneally injected to group 2, WG37R mice model at the age of 2 months. The WG37R mice in the group 1 received an injection of equal volume of (about 1:20; DMSO:PBS) instead. For chronic toxicity experiments, 120 daily doses of about 10 mg/kg bodyweight of NS-1-2 was intraperitoneally injected to group 4, WG37R mice model at the age of 3 months for 120 days, until the age of 7 months. The WG37R mice in the group 3 received an injection of equal volume of (about 1:20; DMSO:PBS) instead.
Wild type (WT) G37R mice received a single dose (about 0.2 mls) IP injection of Sham suspended in (about 1:20; DMSO:PBS) and a single dose of about 10 mg/kg bodyweight (about 0.2 mls) IP injection of NS-1-2 suspended in about 1:20; DMSO:PBS at the age of 2 months. […] At the experimental endpoint, the mice were first deeply anesthetized with a mixture of about 20% v/v isoflurane/propylene glycol (about 1 ml of the mixture per about 500 ml of bell jar space, University of Manitoba animal care SOP A003) and than exsanguination was done by cutting the animal's right atrium followed by an intracardiac perfusion with about 0.9% NaCl. During perfusion, syringe barrel nosecone was used for prolonged anesthesia. Cardiac perfusion was followed by perfusion with about 4% paraformaldehyde for histology (H&E staining) analysis. Mouse tissues (brain, heart, spinal cord, kidney, liver, muscle, lung, and spleen) were fixed for about 48 h in about 4% buffered formalin at about 4° C. Only the spinal cord was processed after about 24 h to remove the spine and again fixed for about another 24 h. Samples were processed and embedded into paraffin blocks at the Histomorphology and Ultrastructural Imaging platform, Dept. of Human Anatomy and Cell Science, University of Manitoba. Briefly, the embedded tissues were cut into about 5 μm thickness, mounted on super frost plus slides and dried overnight at about 37° C. Slides were deparaffinized in about 2 changes of xylene and rehydrated in descending alcohols (about 2 changes of about 100% Ethanol and about 2 changes of about 95% Ethanol) and tap water. Slides were stained with Harris Haematoxylin followed by differentiation with acid alcohol. After rinsing in tap water, saturated lithium carbonate was used for Bluing the nucleus. After that the slides were rinsed in tap water and counter stained with eosin. […]

[2] = tested on: WG37R mice; test: 120-day chronic toxicity assessment in WG37R mice; type: in vivo; conditions: 10 mg/kg/day IP daily for 120 days
Protocol: The WG37R mice were randomly assigned to 2 groups: For the second set of the experiment, a total of 6 animals per group (3 male and 3 female) were used in the study. Group 3: Sham treatment 1 (1:20 DMSO/PBS) and Group 4: NS-1-2 (10 mg/kg body weight). According to requirement of acute toxicity study, 6-10 animals should be used to evaluate the effect of a substance. However, as the new analogues are structurally similar to Edaravone, having a single-dose safety profile of 450 mg/kg, the mortality of the Edaravone analogues at a dose of 10 mg/kg body weight/day was not expected. Considering the above facts, for the present acute study, the proposed minimum number of animals was 6 per group. Morphological alterations, histological changes, and mean body weight assessments for whole set of animals, for both the WG37R control groups (N=5; 1:20, DMSO:PBS) and WG37R treated groups (N=6; NS-1-2; 10 mg/kg bodyweight) were assessed during the 120-day chronic toxicity assessment, by giving daily of 120 IP injection to the mouse at 3 months of age. Only one male mice from group 3 (control) was terminated unexpectedly, and was likely due to an accidental error in injection (discussed with Central Animal Care Services, veterinarians and staff). IP injections may be difficult because of the aggressiveness of mice (particularly the male mice, during physical restraint). […]

[3] = single 10 mg/kg IP dose, 2 weeks monitoring

Structure (SMILES): Cc1cc(B2OC(C)(C)C(C)(C)O2)n(-c2ccccc2)n1 [NS-1-2, 3-methyl-5-(4,4,5,5-tetramethyl-1,3,2-dioxaborolan-2-yl)-1-phenyl1H-pyrazole]
- H&E histology compared with control mice ([1]; G37RWT female mice, FIG. 13): no significant differences with respect to control mice
- signs of overt degeneration, inflammation and necrosis in examined tissues ([1]; G37RWT female mice, FIG. 13): no signs of overt degeneration, inflammation and necrosis
- H&E histology compared with control mice ([1]; G37RWT male mice, FIG. 12): no significant differences with respect to control mice
- signs of overt degeneration, inflammation and necrosis in examined tissues ([1]; G37RWT male mice, FIG. 12): no signs of overt degeneration, inflammation and necrosis
- changes in body weight ([1]; acute treatment, 10 mg/kg, FIG. 10): did not induce any abnormal changes in the body weight
- daily general observations [1, 3]: normal appearance, normal general behaviour with well-conditioned body condition
- treatment-related deaths [1, 3]: No acute treatment-related deaths
- clinical signs of toxicity compared to vehicle-treated mice [2]: no clinical signs of toxicity
- tolerability [2]: seemingly tolerated
